Experimental data as given in patent US20230131339A1, “EPI-X4 BASED PEPTIDES AND DERIVATIVES THEREOF” (Universitaet Ulm, priority 2020, published 2023).

Experiments:
[1] = tested on: primary CXCR4 AML patient samples; test: Engraftment of primary AML patient samples in NSG mice; assay type: in vivo
Source text: (§1) Experimental data support the efficiency of the claimed peptide derivatives against the diseases mentioned above. At the example of JM #21 (SEQ ID NO.: 23) it could be shown that the peptides counteract growth and migration in vitro and in vivo of Acute Myeloid Leukemia (AML) cells as well as primary patient material and Waldenström's Macroglobulinemia (WM) cells harboring different WHIM-like CXCR4 mutations. This was accompanied by intrinsic changes suppressing oncogenic MAP kinase signaling of AML and WM cells.

[2] = tested on: CXCL12 induced migration of T-cells; test: Migration assay (transwell, Jurkat cells); assay type: cell-based
Experimental: For each peptide, three independent experiments were performed. The error bars refer to the standard deviation.
Migration assay. Migration assays were performed using 96-well transwell assay plates (Corning Incorporated, Kennebunk, Me., USA) with 5 μm polycarbonate filters. […] Next, 75 μL (0.5×10^5 cells) of Jurkat cells (in assay buffer), together with/without the compounds, were added into the upper chambers. After 4 h at 37° C. (5% CO2), 100 μL of the lower chambers were transferred to a fresh 96 V-well plate and analyzed with Cell-Titer-Glo® assay (Promega, Madison, Wis., USA). The percentage of migrated cells was calculated as described by Balabanian et al. (2005). In order to obtain the relative migration in %, the percentage of migrated cells were normalized to the CXCL12-only control.

[3] = Stability assay in human S9 liver fractions; details: 2 hours, with cofactors
Experimental: Further, the stability of peptides in human S9 liver fractions (in the presence of cofactors) was tested (FIG. 12). […] To simulate and predict hepatic metabolic clearance, peptides were added to human S9 liver fractions. […] For each peptide, three independent experiments were performed.
Stability assay in human S9 liver fractions. Pooled human liver S9 fractions were obtained from Thermo Fisher Scientific at a total protein concentration of 20 mg/ml. Fractions were stored in 25 μl aliquots at −80° C. For stability experiments, they were diluted to a final concentration of 0.5 mg/ml in Tris buffer. Cofactors (or buffer) were added immediately before start of the experiment (NADPH: 1 mM, UDPGA: 0.5 mM, GSH: 2.5 mM, PAPS: 0.05 mg/ml, Sigma Aldrich). The reaction was started by adding peptides or compounds at a concentration of 20 μM to the mixture and gentle agitation at 37° C. Determination of enzymatic stability was performed as described for plasma.

[4] = tested on: CXCL12-induced ERK phosphorylation of CXCR4 mutant WM cells; test: CXCL12-induced ERK phosphorylation of CXCR4 mutant WM cells; assay type: cell-based
Source text: as §1

[5] = tested on: CXCL12 induced Ca2+-signalling; test: Ca++ signaling in BCR-ABL-transformed murine bone marrow cells; assay type: cell-based; details: 1 μM
Experimental: Fifth, it was shown that the peptide derivatives inhibit calcium-signaling. CXCL12 stimulation of CXCR4 expressing B-cells leads to a strong calcium-release. In the presence of CXCR4 antagonists this response is reduced.
For calcium measurement, 1×10^6 BCR-ABL-transformed murine bone marrow cells were incubated with 5 μg/mL of Indo-1 (Molecular Probes) and 0.5 μg/mL of pluronic F-127 (Molecular Probes) in Iscove's medium supplemented with 1% FCS (Pan Biotech) at 37° C. for 45 min. Cells were then washed by centrifugation and the cell pellets were resuspended in Iscove's medium with 1% FCS and treated with the EPI-X4 derivatives (1 μM or 0.5 μM) for 10 minutes at room temperature. Cells were pre-warmed for 5 minutes at 37° C. Calcium flux was assessed by FACS measurement at BD LSR Fortessa. After 30 seconds of baseline recording, CXCR4-dependent calcium signaling was determined by stimulating with 100 ng/ml of mouse SDF-1a (PeproTech).

CXCR4 = molecular target: T1, CXCR4 (Homo sapiens, UniProt P61073); test: Antibody competition assay (12G5-assay) on SupT1 cells; assay type: binding
T1 construct: endogenous in cells; host or cells: SupT1 cells
T1 sequence (P61073 whole entry): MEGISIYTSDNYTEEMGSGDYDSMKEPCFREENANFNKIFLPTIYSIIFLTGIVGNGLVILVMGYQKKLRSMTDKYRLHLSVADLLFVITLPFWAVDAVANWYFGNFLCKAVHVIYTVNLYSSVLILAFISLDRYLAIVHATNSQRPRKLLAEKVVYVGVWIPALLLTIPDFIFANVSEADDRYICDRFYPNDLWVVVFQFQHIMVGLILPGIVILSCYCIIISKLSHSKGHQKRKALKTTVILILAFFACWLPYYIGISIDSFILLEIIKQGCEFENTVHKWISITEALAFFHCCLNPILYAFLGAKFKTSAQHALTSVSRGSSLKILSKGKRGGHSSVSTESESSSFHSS
Experimental: Second, the activity was tested by an antibody competition assay (FIG. 2). Values determined by the competition assay represent the potency of a compound to compete with an antibody that specifically binds to the binding pocket (ECL2) of CXCR4. […] To the right of the diagrams, an assignment of the curves to the tested peptides is explained. […] Three independent experiments were carried out for each peptide in each assay. The error bars refer to the standard deviation.
Antibody competition assay. Competition of compounds with antibody binding was performed on SupT1 cells. For that cells were washed in PBS containing 1% FCS and 50,000 cells were then seeded per well in a 96 V-well plate. Buffer was removed and plates were precooled at 4° C. Compounds were diluted in PBS and antibody (clone 12G5, APC labelled) was diluted in PBS containing 1% FCS. The antibody was used at a concentration closed to its determined Kd. 15 μl compounds were then added to the cells and 15 μl antibody immediately afterwards. Plates were incubated at 4° C. in the dark for 2 hours. Afterwards cells were washed twice with PBS containing 1% FCS and fixed with 2% PFA. Antibody binding was analyzed by flow cytometry (FACS CytoFLEX; Beckman Coulter®).

AML cells = test: Migration of AML cells along a CXCL12 gradient; assay type: cell-based
Source text: as §1

[6] = tested on: CXCL12-induced ERK phosphorylation of AML cells; test: CXCL12-induced ERK phosphorylation of AML cells; assay type: cell-based
Source text: as §1

[7] = tested on: CXCR4-tropic X4-HIV-1 (NL4-3); assay type: cell-based; details: compared to EPI-X4
WM cells = test: Migration of WM cells along a CXCL12 gradient; assay type: cell-based; details: with or without S338X mutation
Source text: as §1

[8] = tested on: CXCL12-induced ERK signaling; test: ERK/AKT signaling assay in SupT1 cells: ERK phosphorylation; assay type: cell-based; details: 1 μM
In short: (§2)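 SupT1 cells in 1% FCS medium preincubated 15 min at 37 °C with compound, then stimulated 2 min with CXCL12 (100 ng/ml final). PFA-fixed, methanol-permeabilized cells stained for phospho-ERK1/2 (Tyr204/Tyr187) or phospho-AKT (Ser473) and read by flow cytometry; two or three independent experiments in triplicate.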

CD34+ normal cells = test: Engraftment of CD34+ normal cells; details: in vivo
Source text: as §1

[9] = tested on: CXCL12-induced AKT signaling; test: ERK/AKT signaling assay in SupT1 cells: AKT phosphorylation; assay type: cell-based
In short: as §2

In the case of `CC[C@H](C)[C@H](N)C(=O)N[C@@H](CC(C)C)C(=O)N[C@@H](CCCNC(=N)N)C(=O)N[C@@H](Cc1c[nH]c2ccccc12)C(=O)N[C@@H](CO)C(=O)N[C@@H](CCCNC(=N)N)C(=O)N[C@@H](CCCCN)C(=O)N[C@@H](CC(C)C)C(=O)N1CCC[C@H]1C(=O)N[C@@H](CS)C(=O)N[C@H](C(=O)N[C@@H](CO)C(=O)O)C(C)C` [JM #21], the “engraftment potential of primary CXCR4 AML patient samples” value [1] is reported as “reduced engraftment potential of primary CXCR4 AML patient samples in NSG mice”, the “inhibition of CXCL12 induced migration of T-cells (in words)” value [2] is reported as “more effective than WSC02” and the “remaining activity in human S9 liver fractions after 2 hours” value [3] is reported as “readily inactivated by liver enzymes”. The “CXCL12-induced ERK phosphorylation of CXCR4 mutant WM cells” value [4] was “reduced CXCL12-induced ERK phosphorylation of CXCR4 mutant WM cells in a dose-dependent manner”, the “reduction of CXCL12 induced calcium-signaling” value [5] was “much stronger than the reduction seen for WSC02” and the “antibody competition / binding to CXCR4 (in words)” value (CXCR4) was “more effective antibody competition”. For the same compound, the “migration of AML cells along a CXCL12 gradient” value (AML cells) was “inhibited migration of AML cells along a CXCL12 gradient”, the “CXCL12-induced ERK phosphorylation of AML cells” value [6] was “reduced CXCL12-induced ERK phosphorylation of AML cells” and the “fold more effective inhibition of X4-HIV-1 than EPI-X4” value [7] was about 100 fold. The “migration of WM cells along a CXCL12 gradient” value (WM cells) was “impaired migration of WM cells with or without S338X mutation along a CXCL12 gradient”, the “reduction of CXCL12-induced ERK signaling” value [8] was 60% and the “engraftment potential of CD34+ normal cells” value (CD34+ normal cells) was “no inhibiting effect on the engraftment potential of CD34+ normal cells”. For the same compound, the “reduction of CXCL12-induced AKT signaling” value ([9]; 1 μM) was “about 50%”, the “reduction of CXCL12-induced AKT signaling” value ([9]; 10 μM) was “about 85%” and the “blocking of CXCL12 induced signaling (in words)” value ([9]; AKT and ERK) was “blocked signaling more effectively than WSC02”. The “fold effectiveness in blocking AKT signaling relative to WSC02” value ([9]; compared to WSC02) was “about 10 fold”.
